The values below come from paper PMC8016939 (2021).

Structures are written as SMILES.

For assay [1], the system named is Baby Spinach (bSP) (RNA, aptamer) GGUGAAGGACGGGUCCAGUAGUUCGCUACUGUUGAGUAGAGUGUGAGCUCC
The assay can be described thus: fluorescence titration plus absorption spectra, multiple-site model. The following applies: 50 mM KCl, 5 mM MgCl2; 10 mM HEPES pH 7.5, 2 µM DFHBI, flow-cell; site 1 of 2 (fluorescent complex); derived as K x p, p = 1.8.

For assay [2] the test system is unchanged. The assay can be described thus: fluorescence titration, 1:1 model. Conditions: 50 mM KCl, 5 mM MgCl2; 10 mM HEPES pH 7.5, 2 µM DFHBI, flow-cell; apparent (one-site model).

For the compound `CC1=N/C(=C\c2cc(F)c(O)c(F)c2)C(=O)N1C`, the Kd worked out at 7.9 ± 0.2 µM in assay [1] and 4.4 µM in assay [2].
